# Reference: ChEMBL document CHEMBL1130707, “Inhibition stereochemistry of hydroxamate inhibitors for thermolysin” (Bioorg Med Chem Lett, 1998)
# Biological target: T1, Thermolysin (Bacillus thermoproteolyticus, UniProt P00800)
# T1 sequence (P00800 whole entry): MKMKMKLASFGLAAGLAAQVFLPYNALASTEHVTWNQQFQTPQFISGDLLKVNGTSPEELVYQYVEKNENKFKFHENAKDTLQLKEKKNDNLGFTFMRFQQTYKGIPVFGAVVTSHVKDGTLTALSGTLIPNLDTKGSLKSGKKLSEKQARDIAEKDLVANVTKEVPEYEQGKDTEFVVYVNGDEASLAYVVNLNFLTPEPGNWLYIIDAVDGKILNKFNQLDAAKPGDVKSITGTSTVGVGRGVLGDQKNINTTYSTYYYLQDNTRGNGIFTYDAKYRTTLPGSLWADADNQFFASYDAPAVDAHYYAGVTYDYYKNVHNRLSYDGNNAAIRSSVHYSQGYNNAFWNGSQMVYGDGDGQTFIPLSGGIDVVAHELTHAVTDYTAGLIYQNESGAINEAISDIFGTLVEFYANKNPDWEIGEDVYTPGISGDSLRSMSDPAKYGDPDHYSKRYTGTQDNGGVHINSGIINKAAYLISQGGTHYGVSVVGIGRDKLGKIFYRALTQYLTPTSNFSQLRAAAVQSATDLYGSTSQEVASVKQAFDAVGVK
# Test: Inhibitory activity against thermolysin
row,Ki [µM],Compound
1,44,COC(=O)[C@@H](CC(C)C)N(O)C=O
2,7500,CCC(=O)N(O)C[C@H](Cc1ccccc1)C(=O)NC
3,22.5,COC(=O)[C@@H](CC(C)C)CN(O)C=O
4,1.66,CNC(=O)[C@@H](Cc1ccccc1)CN(O)C=O
5,68.2,CNC(=O)[C@H](Cc1ccccc1)CN(O)C=O
6,3950,CNC(=O)[C@@H](Cc1ccccc1)CN(O)C(C)=O

# Biological target: T1, Thermolysin
# Test: Inhibitory activity against thermolysin; No inhibitory activity was observed up to concentration of 20 mM
row,Ki,Compound
1,No inhibition,CCC(=O)N(O)C[C@@H](Cc1ccccc1)C(=O)NC
2,No inhibition,CNC(=O)[C@H](Cc1ccccc1)CN(O)C(C)=O
